Measured values from patent publication US20130116586A1, “USE OF DRONEDARONE OR A PHARMACEUTICALLY ACCEPTABLE SALT THEREOF FOR THE PREPARATION OF A DRUG FOR THE PREVENTION OF ATRIAL FIBRILLATION” (SANOFI, priority 2011, published 2013).
Counter-ions that a name gives are not always drawn.

Columns and labels:
[1] = tested on: patients with permanent atrial fibrillation or flutter; assay: PALLAS study: dronedarone 400 mg bid vs placebo on top of standard therapy; type: in vivo, human; conditions: for unplanned cardiovascular hospitalizations and mortality, events recorded: 400 mg bid; for relative risk of cardiovascular hospitalizations and deaths vs placebo: Cox model
Source text: The PALLAS trial (Permanent Atrial fibriLLAtion outcome Study) using dronedarone on top of standard therapy was designed to evaluate the efficacy of dronedarone on major cardiovascular events in a patient population with permanent AF.
The primary efficacy objective of PALLAS was the reduction of: • 1) major cardiovascular events (stroke, systemic arterial embolism, myocardial infarction or cardiovascular death), or • 2) unplanned cardiovascular hospitalization or death from any cause.
Patients with permanent AF were at least 65 years of age with a 12-lead ECG recorded no more than 14 days prior to randomization showing AF or atrial flutter, documentation in the form of ECG rhythm strips or medical reports indicating AF or atrial flutter for at least 6 months prior to randomization without evidence of sinus rhythm in the intervening period. In addition, both the patient and physician must have reached a decision to allow AF to continue without further efforts to restore sinus rhythm.
Patients were randomized to dronedarone 400 mg bid or placebo.
• 1. NYHA class IV or recent unstable NYHA class III heart failure, where unstable refers to a requirement for intensification of therapy (e.g., increased diuretic, ACE/ARB, or inotropic dosage due to exacerbated symptoms within one month prior to randomization). • 2. Sustained daytime bradycardia <50 bpm without a permanent pacemaker • 3. QTc interval ≧500 ms, or 530 ms if there is ventricular paced rhythm • 4. Hypersensitivity to the active substance or to any of its excipients • 5. Need for co-administration of strong CYP3A4 inhibitors, such as ketoconazole, itraconazole, voriconazole, telithromycin, clarithromycin, nefazodone and ritonavir leading to increased systemic exposure to dronedarone • 6. Need for co-administration of medicinal products capable of inducing torsades de pointes ventricular tachycardia, such as phenothiazines, cisapride, bepridil, tricyclic antidepressants, terfenadine and certain oral macrolides, or Vaughan Williams class I and III antiarrhythmic agents) • 7. Severe hepatic impairment
Treatment was initiated using tablets containing either the placebo or an amount of dronedarone hydrochloride corresponding to 400 mg of dronedarone at a rate of one tablet twice a day with the morning and evening meals.
The anticipated duration of the treatment was variable according to the time at which each patient was included in the study, and could range between 3 months for the last patient included and 3 years for the first patient included.
The results obtained in this trial were analysed by the Kaplan Meier method for the figures, and the relative risk (RR) was estimated using Cox's proportional-effect regression model.
The relative risk (RR) is the ratio of the rates of occurrence of a hospitalization or of a death among the patients on dronedarone, relative to the patients on placebo.

[2] = tested on: patients with atrial fibrillation; conditions: in vivo; cited from earlier work
[3] = tested on: patients hospitalized with symptomatic unstable heart failure and severe left ventricular systolic function; conditions: trial terminated early; cited from earlier work
[4] = tested on: patients with permanent atrial fibrillation; conditions: in vivo; cited from earlier work
[5] = tested on: patients with atrial fibrillation/atrial flutter; assay: ATHENA trial, including post-hoc exploratory analysis of patients with AF on all follow-up ECGs; type: in vivo, human; conditions: for patients displaying AF on all ECGs recorded during follow-up: of 2301 patients assigned to dronedarone
Description: • AF/AFL atrial fibrillation or atrial flutter • ATHENA A placebo-controlled, double-blind, parallel arm Trial to assess the efficacy of dronedarone 400 mg bid for the prevention of cardiovascular Hospitalization or death from any cause in patiENts with Atrial fibrillation/atrial flutter • PALLAS Permanent Atrial fibriLLAtion Outcome Study Using Dronedarone on Top of Standard Therapy
For the sake of hypothesis generation, these patients can be considered as having permanent AF. In a post-hoc exploratory analysis of this cohort, the primary study endpoint (time to first CV hospitalization or all-cause death) occurred in 95 patients in the placebo group and 46 in the dronedarone group (HR 0.742, 95% Cl 0.522-1.056; p=0.096). Considering first unplanned CV hospitalizations, 85 patients in the placebo group and 37 on dronedarone reached this secondary study endpoint (HR 0.67, 95% Cl 0.46-0.99; p=0.04). There was a similar trend toward reduction in major cardiovascular events (stroke, ACS, cardiovascular death). These observations from ATHENA supported testing the efficacy of dronedarone for prevention of major cardiovascular events in patients with permanent AF.

[6] = tested on: patients with atrial fibrillation/atrial flutter; conditions: whole ATHENA trial; cited from earlier work

CCCCc1oc2ccc(NS(C)(=O)=O)cc2c1C(=O)c1ccc(OCCCN(CCCC)CCCC)cc1 [dronedarone, 2-n-Butyl-3-[4-(3-di-n-butylaminopropoxy)benzoyl]-5-methylsulphonamidobenzofuran]
co-primary outcomes, cardiovascular hospitalizations and heart failure events in the dronedarone group ([1]; preliminary review of the unblinded data): highly significant excess of events
rhythm-controlling efficacy [2]: has been demonstrated
mortality vs placebo [3]: increased mortality
rate control [4]: has rate-controlling properties
patients displaying AF on all ECGs recorded during follow-up ([5]; placebo 12.7%): 7.7%
patients displaying AF on all ECGs recorded during follow-up ([5]; placebo 296 of 2,327): 178 patients
HR for first unplanned CV hospitalizations vs placebo ([5]; post-hoc cohort with AF on all ECGs, 95% CI 0.46-0.99, p=0.04): 0.67
HR for primary study endpoint (first CV hospitalization or all-cause death) vs placebo ([5]; post-hoc cohort with AF on all ECGs, 95% CI 0.522-1.056, p=0.096): 0.742
first unplanned CV hospitalizations, patients reaching endpoint ([5]; post-hoc cohort with AF on all ECGs, placebo 85): 37 patients
primary study endpoint (time to first CV hospitalization or all-cause death), patients with event ([5]; post-hoc cohort with AF on all ECGs, placebo 95): 46 patients
major clinical outcomes including cardiovascular hospitalizations or cardiovascular mortality, and stroke [6]: reduced major clinical outcomes

CCCCc1oc2ccc(NS(C)(=O)=O)cc2c1C(=O)c1ccc(OCCCN(CCCC)CCCC)cc1 [dronedarone hydrochloride]
unplanned cardiovascular hospitalizations and mortality, events recorded ([1]; preliminary results, placebo group 72 events): 114 events
relative risk of cardiovascular deaths vs placebo ([1]; preliminary results, 95% CI 0.98-6.53, p=0.0462): 2.53
relative risk of cardiovascular hospitalizations vs placebo ([1]; preliminary results, 95% CI 1.15-2.12, p=0.0039): 1.56
relative risk of cardiovascular hospitalizations for heart failure vs placebo ([1]; preliminary results, 95% CI 1.22-3.99, p=0.0070): 2.21
relative risk of heart failure related episodes vs placebo ([1]; preliminary results, 95% CI 1.66-3.74, p<0.0001): 2.49
relative risk of cardiovascular hospitalizations and deaths vs placebo ([1]; preliminary results, 95% CI 1.20, 2.17, p=0.001): 1.62
cardiovascular mortality, events recorded ([1]; preliminary results, placebo group 6 events): 15 events
cardiovascular hospitalizations for heart failure, events recorded ([1]; preliminary results, placebo group 16 events): 35 events
heart failure, events recorded ([1]; preliminary results, placebo group 33 events): 80 events
unplanned cardiovascular hospitalizations, events recorded ([1]; preliminary results, placebo group 68 events): 104 events
relative risk of cardiovascular hospitalizations and death vs placebo ([1]; preliminary results, subgroup with NYHA class III heart failure, 95% CI 1.02, 2.44, p=0.041): 1.58
relative risk of cardiovascular hospitalizations and death vs placebo ([1]; preliminary results, subgroup with left ventricular ejection fraction (LVEF)<40%, 95% CI 1.20, 2.30, p=0.002): 1.66
relative risk of cardiovascular hospitalizations and death vs placebo ([1]; preliminary results, subgroup with symptomatic heart failure, 95% CI 1.01, 2.09, p=0.043): 1.46
unplanned cardiovascular hospitalizations and mortality, events recorded ([1]; results (III.1'), placebo group 67 events): 127 events
relative risk of cardiovascular hospitalizations and deaths vs placebo ([1]; results (III.1'), p<0.001): 1.95
relative risk of cardiovascular deaths vs placebo ([1]; results (III.2'), 95% CI 1.00-4.49, p=0.046): 2.11
cardiovascular mortality, events recorded ([1]; results (III.2'), placebo group 10 events): 21 events
relative risk of unplanned hospitalizations for cardiovascular causes vs placebo ([1]; results (III.3'), 95% CI 1.44-2.70, p<0.001): 1.97
unplanned hospitalizations for cardiovascular causes, events recorded ([1]; results (III.3'), placebo group 59 events): 113 events
relative risk of cardiovascular hospitalizations for heart failure vs placebo ([1]; results (III.4'), 95% CI 1.10-2.99, p=0.02): 1.81
cardiovascular hospitalizations for heart failure, events recorded ([1]; results (III.4'), placebo group 24 events): 43 events
relative risk of a heart failure episode or hospitalizations for heart failure vs placebo ([1]; results (III.9), 95% CI 1.57-2.98, p<0.001): 2.16
heart failure episode or hospitalizations for heart failure, events recorded ([1]; results (III.9), placebo group 55 events): 115 events
